Laboratory results from DBAASP.
Values after ≈ are worked out from the molar mass of the structure shown. One block for each compound: values may come before it.

Columns and labels:
Assay in all cases: ≥ marks a high value that may be exact or a test limit, other limits are often not marked, values filed in µg/mL are converted to µM
[1] = test system: Staphylococcus aureus ATCC 2592
[2] = test system: Bacillus pumilus
[3] = test system: Escherichia coli ATCC 25922
[4] = test system: Bacillus cereus
[5] = test system: Acinetobacter calcoaceticus
[6] = test system: Shigella dysenteriae
[7] = test system: Pseudomonas aeruginosa
[8] = test system: Candida albicans ATCC 2002
[9] = test system: Psychrobacter faecalis X29
[10] = test system: Rhodococcus rhodochrous X15
[11] = test system: Pseudomonas aeruginosa MR2123
[12] = test system: Escherichia coli BAS 849
[13] = test system: Mycobacterium tuberculosis
[14] = test system: Acinetobacter baumannii ATCC 19606
[15] = test system: Klebsiella pneumoniae ATCC 13883
[16] = test system: Mycobacterium tuberculosis H37Rv
[17] = test system: Escherichia coli ML-35p
[18] = test system: Staphylococcus aureus ATCC 25923
[19] = test system: Pseudomonas aeruginosa SBI-N
[20] = test system: Klebsiella pneumoniae
[21] = test system: Acinetobacter baumannii ATCC 19606R
[22] = test system: Listeria monocytogenes EGD
[23] = test system: Pseudomonas aeruginosa ATCC 27853
[24] = test system: Streptococcus agalactiae ATCC 12386
[25] = test system: Staphylococcus aureus 28841
[26] = test system: Enterococcus faecalis CDC 21
[27] = test system: Staphylococcus aureus 30371
[28] = test system: Staphylococcus aureus ATCC 29213
[29] = test system: Escherichia coli mcr106
[30] = test system: Mycobacterium avium
[31] = test system: Pseudomonas aeruginosa MR3007
[32] = test system: Salmonella enterica serovar typhimurium MS7953s
[33] = test system: Batrachochytrium dendrobatidis
[34] = test system: Staphylococcus aureus 930918-3
[35] = test system: Enterococcus faecium 94-132
[36] = test system: Salmonella enterica subsp. enterica serovar Typhimurium ATCC 14028s
[37] = test system: Enterococcus faecalis ATCC 29212
[38] = test system: Enterococcus faecium
[39] = test system: Fusarium oxysporum
[40] = test system: Pseudomonas aeruginosa ATCC 9027
[41] = test system: Staphylococcus aureus USA 100
[42] = test system: Staphylococcus aureus USA 300
[43] = test system: Cryptococcus neoformans ATCC 208821
[44] = test system: Fusarium solani

MIC [1]: 5.12 µM (≈ 7.5 µg/mL) | MIC [2]: 10.2 µM (≈ 15 µg/mL) | MIC [3]: 10.2 µM (≈ 15 µg/mL) | MIC [4]: ≥ 51.2 µM | MIC [5]: ≥ 41 µM | MIC [6]: 20.5 µM (≈ 30 µg/mL) | MIC [7]: 5.12 µM (≈ 7.5 µg/mL) | MIC [8]: 3.42 µM (≈ 5 µg/mL)
Structure (SMILES): CC[C@H](C)[C@H](NC(=O)[C@@H]1CCCN1C(=O)[C@H](Cc1ccccc1)NC(=O)[C@@H](N)Cc1ccccc1)C(=O)N[C@H](C(=O)NCC(=O)N[C@@H](CCCCN)C(=O)N[C@@H](CC(C)C)C(=O)N[C@@H](CC(C)C)C(=O)N[C@@H](Cc1ccccc1)C(=O)NCC(=O)N[C@@H](CC(C)C)C(=O)N[C@@H](CC(C)C)C(N)=O)C(C)C [FFPIVGKLLFGLL]

MIC [1]: ≥ 60 µM | MIC [9]: 15 µM (≈ 49.3 µg/mL) | MIC [10]: 30 µM (≈ 98.7 µg/mL)
Structure (SMILES): CC[C@H](C)[C@H](NC(=O)[C@H](C)NC(=O)[C@@H](NC(=O)[C@H](CC(=O)O)NC(=O)[C@H](CCCCN)NC(=O)[C@H](Cc1ccccc1)NC(=O)[C@@H](NC(=O)[C@H](CC(=O)O)NC(=O)[C@H](CC(C)C)NC(=O)[C@@H](NC(=O)CN)C(C)C)[C@@H](C)O)C(C)C)C(=O)NCC(=O)N[C@H](C(=O)N[C@@H](C)C(=O)N[C@@H](CCCCN)C(=O)NCC(=O)N[C@@H](C)C(=O)NCC(=O)N[C@H](C(=O)NCC(=O)N[C@H](C(=O)N[C@@H](CC(C)C)C(=O)N[C@@H](CCCCN)C(=O)N[C@@H](C)C(=O)N[C@@H](CC(C)C)C(=O)N[C@@H](CC(C)C)C(=O)N[C@H]1CSSC[C@@H](C(=O)O)NC(=O)[C@H](CO)NC(=O)[C@H](CCCCN)NC(=O)[C@H](CC(=O)O)NC(=O)[C@H](CC(C)C)NC(=O)[C@H](CCCCN)NC1=O)C(C)C)[C@@H](C)O)C(C)C [GVLDTFKDVAIGVAKGAGTGVLKALLCKLDKSC]

MIC [11]: 0.166 µM (≈ 0.4 µg/mL) | MIC [12]: 0.29 µM (≈ 0.7 µg/mL) | MIC [13]: ≥ 53.1 µM | MIC [14]: 26.6 µM (≈ 64 µg/mL) | MIC [15]: ≥ 104 µM | MIC [16]: ≥ 498 µM | MIC [17]: 0.29 µM (≈ 0.7 µg/mL) | MIC [18]: > 207 µM | MIC [19]: 0.166 µM (≈ 0.4 µg/mL) | MIC [20]: 0.747 µM (≈ 1.8 µg/mL) | MIC [21]: 26.6 µM (≈ 64 µg/mL) | MIC [22]: 1.91 µM (≈ 4.6 µg/mL) | MIC [23]: > 207 µM | MIC [24]: 31.1 µM (≈ 75 µg/mL) | MIC [3]: 104 µM (≈ 250 µg/mL) | MIC [25]: ≥ 39.3 µM | MIC [26]: 3.03 µM (≈ 7.3 µg/mL) | MIC [27]: ≥ 83 µM | MIC [28]: > 207 µM | MIC [29]: 0.373 µM (≈ 0.9 µg/mL) | MIC [30]: ≥ 53.1 µM | MIC [31]: 0.207 µM (≈ 0.5 µg/mL) | MIC [32]: 0.249 µM (≈ 0.6 µg/mL) | MIC [33]: ≥ 47 µM | MIC [34]: 9.13 µM (≈ 22 µg/mL) | MIC [35]: 1.16 µM (≈ 2.8 µg/mL) | MIC [36]: 0.498 µM (≈ 1.2 µg/mL) | MIC [37]: > 207 µM | MIC [38]: 1.66 µM (≈ 4 µg/mL)
Structure (SMILES): CC[C@H](C)[C@H](NC(=O)CN)C(=O)NCC(=O)N[C@@H](CCCCN)C(=O)N[C@@H](Cc1ccccc1)C(=O)N[C@@H](CC(C)C)C(=O)N[C@@H](Cc1c[nH]cn1)C(=O)N[C@@H](CO)C(=O)N[C@@H](C)C(=O)NCC(=O)N[C@@H](CCCCN)C(=O)N[C@@H](Cc1ccccc1)C(=O)NCC(=O)N[C@@H](CCCCN)C(=O)N[C@@H](C)C(=O)N[C@@H](Cc1ccccc1)C(=O)N[C@H](C(=O)NCC(=O)N[C@@H](CCC(=O)O)C(=O)N[C@H](C(=O)N[C@@H](CCSC)C(=O)N[C@@H](CCCCN)C(=O)N[C@@H](CO)C(=O)O)[C@@H](C)CC)C(C)C [GIGKFLHSAGKFGKAFVGEIMKS]

MIC [39]: 16 µM (≈ 22.2 µg/mL) | MIC [40]: 50 µM (≈ 69.3 µg/mL) | MIC [41]: 6.25 µM (≈ 8.67 µg/mL) | MIC [42]: 12.5 µM (≈ 17.3 µg/mL) | MIC [43]: 23.1 µM (≈ 32 µg/mL) | MIC [44]: 8 µM (≈ 11.1 µg/mL)
Structure (SMILES): NC(=O)[C@H](Cc1c[nH]c2ccccc12)NC(=O)[C@H](CCCN=C(N)N)NC(=O)[C@H](Cc1c[nH]c2ccccc12)NC(=O)[C@H](CCCN=C(N)N)NC(=O)[C@H](Cc1c[nH]c2ccccc12)NC(=O)[C@H](CCCN=C(N)N)NC(=O)[C@H](Cc1c[nH]c2ccccc12)NC(=O)[C@@H](N)CCCN=C(N)N [RWRWRWRW]
